pIC50: −log10 of the molar value.
System: 429239-143-T-J1-PDC complex spheroid viability
Test: Anticancer human tumor 429239-143-T-J1-PDC patient-derived small cell lung carcinoma cell line growth inhibition [POLQ]
Settings: for pIC50: curve of first compound; for viability, T/C: stronger effect = lower value
Method in brief: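 PDC + HUVEC + MSC complex spheroids; POLQ inhibitors ± partner drugs; top conc. at/near clinical Cmax, else 10 microM (SN-38 1 microM), half-log dilutions; 37 degrees C, 5% CO2.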

[1] = second compound 0.0316 µM, first compound 0.0316 µM
[2] = second compound 0.0316 µM, first compound 0.1 µM
[3] = second compound 0.1 µM, first compound 0.0316 µM
[4] = second compound 0.1 µM, first compound 0.1 µM
[5] = second compound 0.316 µM, first compound 0.0316 µM
[6] = second compound 0.316 µM, first compound 0.1 µM
[7] = second compound 1 µM, first compound 0.0316 µM
[8] = second compound 1 µM, first compound 0.1 µM
[9] = second compound 3.16 µM, first compound 0.0316 µM
[10] = second compound 3.16 µM, first compound 0.1 µM
[11] = second compound 10 µM, first compound 0.0316 µM
[12] = second compound 10 µM, first compound 0.1 µM
[13] = second compound 0.0316 µM, first compound 0.316 µM
[14] = second compound 0.0316 µM, first compound 1 µM
[15] = second compound 0.0316 µM, first compound 3.16 µM
[16] = second compound 0.0316 µM, first compound 10 µM
[17] = second compound 0.1 µM, first compound 0.316 µM
[18] = second compound 0.1 µM, first compound 1 µM
[19] = second compound 0.1 µM, first compound 3.16 µM
[20] = second compound 0.1 µM, first compound 10 µM
[21] = second compound 0.316 µM, first compound 0.316 µM
[22] = second compound 0.316 µM, first compound 1 µM
[23] = second compound 0.316 µM, first compound 3.16 µM
[24] = second compound 0.316 µM, first compound 10 µM
[25] = second compound 1 µM, first compound 0.316 µM
[26] = second compound 1 µM, first compound 1 µM
[27] = second compound 1 µM, first compound 3.16 µM
[28] = second compound 1 µM, first compound 10 µM
[29] = second compound 3.16 µM, first compound 0.316 µM
[30] = second compound 3.16 µM, first compound 1 µM
[31] = second compound 3.16 µM, first compound 3.16 µM
[32] = second compound 3.16 µM, first compound 10 µM
[33] = second compound 10 µM, first compound 0.316 µM
[34] = second compound 10 µM, first compound 1 µM
[35] = second compound 10 µM, first compound 3.16 µM
[36] = second compound 10 µM, first compound 10 µM
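Further: luminescence signal used as surrogate measure of viable cells; spheroids exposed to compounds for seven days before readout.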
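Wherever viability, T/C is given: 100% = DMSO vehicle control viability as luminescence relative to vehicle.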

Cn1ncnc1[C@H]1c2n[nH]c(=O)c3cc(F)cc(c23)N[C@@H]1c1ccc(F)cc1 + COC1C(OC(N)=O)C(O)C(Oc2ccc3c(O)c(NC(=O)c4ccc(O)c(CC=C(C)C)c4)c(=O)oc3c2C)OC1(C)C
pIC50 (second compound 0.0316 µM): 7.61
pIC50 (second compound 0.1 µM): 7.86
pIC50 (second compound 0.316 µM): 7.63
pIC50 (second compound 1 µM): 7.81
pIC50 (second compound 3.16 µM): 7.86
pIC50 (second compound 10 µM): 7.84
viability, T/C (second compound 0.0316 µM, first compound 0.000316 µM): 97.7%
viability, T/C (second compound 0.0316 µM, first compound 0.001 µM): 89.6%
viability, T/C (second compound 0.0316 µM, first compound 0.00316 µM): 83.6%
viability, T/C (second compound 0.0316 µM, first compound 0.01 µM): 62.6%
viability, T/C [1]: 47%
viability, T/C [2]: 27.8%
viability, T/C (second compound 0.1 µM, first compound 0.000316 µM): 104%
viability, T/C (second compound 0.1 µM, first compound 0.001 µM): 105%
viability, T/C (second compound 0.1 µM, first compound 0.00316 µM): 84.6%
viability, T/C (second compound 0.1 µM, first compound 0.01 µM): 51.5%
viability, T/C [3]: 45.5%
viability, T/C [4]: 27.8%
viability, T/C (second compound 0.316 µM, first compound 0.000316 µM): 94.2%
viability, T/C (second compound 0.316 µM, first compound 0.001 µM): 92.4%
viability, T/C (second compound 0.316 µM, first compound 0.00316 µM): 88.7%
viability, T/C (second compound 0.316 µM, first compound 0.01 µM): 64.5%
viability, T/C [5]: 45.7%
viability, T/C [6]: 22.8%
viability, T/C (second compound 1 µM, first compound 0.000316 µM): 98.4%
viability, T/C (second compound 1 µM, first compound 0.001 µM): 93.5%
viability, T/C (second compound 1 µM, first compound 0.00316 µM): 82.9%
viability, T/C (second compound 1 µM, first compound 0.01 µM): 57.6%
viability, T/C [7]: 36.8%
viability, T/C [8]: 25.4%
viability, T/C (second compound 3.16 µM, first compound 0.000316 µM): 92.1%
viability, T/C (second compound 3.16 µM, first compound 0.001 µM): 90%
viability, T/C (second compound 3.16 µM, first compound 0.00316 µM): 77.7%
viability, T/C (second compound 3.16 µM, first compound 0.01 µM): 58.1%
viability, T/C [9]: 31.5%
viability, T/C [10]: 27.8%
viability, T/C (second compound 10 µM, first compound 0.000316 µM): 89.5%
viability, T/C (second compound 10 µM, first compound 0.001 µM): 90.9%
viability, T/C (second compound 10 µM, first compound 0.00316 µM): 78.9%
viability, T/C (second compound 10 µM, first compound 0.01 µM): 53.4%
viability, T/C [11]: 39.6%
viability, T/C [12]: 25.1%

COc1cc(C2c3cc4c(cc3C(OC3OC5COC(C)OC5C(O)C3O)C3COC(=O)C23)OCO4)cc(OC)c1O (stereo unspecified) + Cc1cccc(N(C)C(=O)C2C(O)CCN2c2nc(C)cc(C(F)(F)F)c2C#N)c1
pIC50 (second compound 0.0316 µM): 6.42
pIC50 (second compound 0.1 µM): 6.44
pIC50 (second compound 0.316 µM): 6.30
pIC50 (second compound 1 µM): 6.47
pIC50 (second compound 3.16 µM): 6.65
pIC50 (second compound 10 µM): 6.61
viability, T/C [1]: 107%
viability, T/C [2]: 92.9%
viability, T/C [13]: 56.7%
viability, T/C [14]: 19.1%
viability, T/C [15]: 20.2%
viability, T/C [16]: 14.3%
viability, T/C [3]: 92.4%
viability, T/C [4]: 88%
viability, T/C [17]: 54.4%
viability, T/C [18]: 19.6%
viability, T/C [19]: 16.6%
viability, T/C [20]: 14.1%
viability, T/C [5]: 92.3%
viability, T/C [6]: 90.1%
viability, T/C [21]: 69.2%
viability, T/C [22]: 21.1%
viability, T/C [23]: 17.4%
viability, T/C [24]: 15.9%
viability, T/C [7]: 85.5%
viability, T/C [8]: 83.3%
viability, T/C [25]: 52%
viability, T/C [26]: 17.4%
viability, T/C [27]: 16.1%
viability, T/C [28]: 15.9%
viability, T/C [9]: 82.8%
viability, T/C [10]: 77.4%
viability, T/C [29]: 38.8%
viability, T/C [30]: 15.2%
viability, T/C [31]: 19.5%
viability, T/C [32]: 16.6%
viability, T/C [11]: 94.6%
viability, T/C [12]: 74.8%
viability, T/C [33]: 44.6%
viability, T/C [34]: 20.7%
viability, T/C [35]: 21.2%
viability, T/C [36]: 18.2%

CCc1cc2c(N3CCc4c(cc(Cn5ccnc5)cc4-c4cn(C)nc4C(F)(F)F)C3=O)ccnc2c(OC)n1 + Nc1ccc(C#CCN(C(=O)Cc2ncc(C(F)(F)F)cc2C(F)(F)F)c2ccc(F)cc2)nn1
pIC50 (second compound 0.0316 µM): 5.01
pIC50 (second compound 0.1 µM): < 5.00
pIC50 (second compound 0.316 µM): 5.10
pIC50 (second compound 1 µM): 5.02
pIC50 (second compound 3.16 µM): < 5.00
pIC50 (second compound 10 µM): < 5.00
viability, T/C [1]: 100%
viability, T/C [2]: 94.9%
viability, T/C [13]: 85.2%
viability, T/C [14]: 80.7%
viability, T/C [15]: 86.4%
viability, T/C [16]: 48%
viability, T/C [3]: 93.7%
viability, T/C [4]: 96.8%
viability, T/C [17]: 92.5%
viability, T/C [18]: 74.1%
viability, T/C [19]: 68.5%
viability, T/C [20]: 49.2%
viability, T/C [5]: 112%
viability, T/C [6]: 113%
viability, T/C [21]: 97.8%
viability, T/C [22]: 83.8%
viability, T/C [23]: 69.9%
viability, T/C [24]: 44.7%
viability, T/C [7]: 108%
viability, T/C [8]: 94.4%
viability, T/C [25]: 94.4%
viability, T/C [26]: 84.6%
viability, T/C [27]: 74.3%
viability, T/C [28]: 47.6%
viability, T/C [9]: 108%
viability, T/C [10]: 96%
viability, T/C [29]: 93.1%
viability, T/C [30]: 93.6%
viability, T/C [31]: 70.9%
viability, T/C [32]: 54%
viability, T/C [11]: 103%
viability, T/C [12]: 93%
viability, T/C [33]: 88.5%
viability, T/C [34]: 79.1%
viability, T/C [35]: 71%
viability, T/C [36]: 48.2%

Source: PubChem BioAssay AID1963845 (Molecular Pharmacology Branch, DTP, NCI, 2024)
